From US10758534B2 (Vertex Pharmaceuticals Incorporated, priority 2014, dated 2020)

molecular target: T1, F508del (Homo sapiens, UniProt P13569, DEL508-508); assay: Protocol 2: FRET membrane potential optical assay (VIPR), identification of correction compounds; assay type: cell-based; settings: Table 3; compounds of Table 1 as modulators of CFTR activity; protocol not stated
T1 construct: expressed in transfected cells
Outline: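 Single-addition HTS format: F508del-expressing NIH3T3 cells pre-incubated 16 hrs at 37° C. ± compound, with 27° C. culture as positive control. Channel activation by forskolin 10 μM and genistein 20 μM upon switch to gluconate bath, pH 7.4; read-out is FRET-based depolarization signal.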

T1 sequence (P13569 with tags, fused parts or gaps DEL508-508): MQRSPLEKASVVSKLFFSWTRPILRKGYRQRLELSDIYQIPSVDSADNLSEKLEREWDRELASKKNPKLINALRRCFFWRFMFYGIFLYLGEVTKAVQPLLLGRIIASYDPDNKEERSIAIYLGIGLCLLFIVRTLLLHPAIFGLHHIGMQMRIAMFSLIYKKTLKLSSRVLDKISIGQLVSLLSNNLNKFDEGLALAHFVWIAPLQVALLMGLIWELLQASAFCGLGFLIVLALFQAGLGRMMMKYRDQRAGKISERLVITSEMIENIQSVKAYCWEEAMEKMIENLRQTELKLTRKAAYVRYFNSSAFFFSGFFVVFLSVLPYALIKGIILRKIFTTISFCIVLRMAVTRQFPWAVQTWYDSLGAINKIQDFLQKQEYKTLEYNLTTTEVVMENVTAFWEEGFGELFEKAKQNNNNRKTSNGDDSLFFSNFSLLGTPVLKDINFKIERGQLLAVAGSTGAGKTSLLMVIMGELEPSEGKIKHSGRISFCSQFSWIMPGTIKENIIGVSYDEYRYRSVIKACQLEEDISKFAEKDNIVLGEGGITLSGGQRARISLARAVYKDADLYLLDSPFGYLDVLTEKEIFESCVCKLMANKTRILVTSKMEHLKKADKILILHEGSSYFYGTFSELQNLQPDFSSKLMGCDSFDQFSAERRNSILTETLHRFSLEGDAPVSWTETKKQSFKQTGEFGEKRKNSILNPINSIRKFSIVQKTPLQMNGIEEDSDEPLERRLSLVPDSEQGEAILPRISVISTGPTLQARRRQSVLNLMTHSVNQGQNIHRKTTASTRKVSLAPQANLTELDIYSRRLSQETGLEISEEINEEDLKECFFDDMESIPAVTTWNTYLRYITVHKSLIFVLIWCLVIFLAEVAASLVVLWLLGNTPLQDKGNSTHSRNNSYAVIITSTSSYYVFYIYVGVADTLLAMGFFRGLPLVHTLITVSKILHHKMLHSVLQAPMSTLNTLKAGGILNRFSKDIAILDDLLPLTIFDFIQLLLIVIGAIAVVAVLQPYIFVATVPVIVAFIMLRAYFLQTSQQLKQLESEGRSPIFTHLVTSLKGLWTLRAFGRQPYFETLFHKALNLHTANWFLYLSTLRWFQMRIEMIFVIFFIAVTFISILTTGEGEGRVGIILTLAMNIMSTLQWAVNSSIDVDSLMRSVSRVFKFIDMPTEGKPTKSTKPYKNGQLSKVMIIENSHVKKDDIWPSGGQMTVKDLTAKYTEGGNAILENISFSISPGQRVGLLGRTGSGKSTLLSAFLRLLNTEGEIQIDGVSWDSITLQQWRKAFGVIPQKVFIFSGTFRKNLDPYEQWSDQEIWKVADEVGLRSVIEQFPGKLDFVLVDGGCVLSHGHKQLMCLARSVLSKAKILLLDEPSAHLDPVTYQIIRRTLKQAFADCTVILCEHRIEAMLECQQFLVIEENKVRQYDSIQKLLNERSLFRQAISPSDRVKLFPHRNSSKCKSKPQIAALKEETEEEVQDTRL

Structure (SMILES)	EC30
CC(C)COc1cccc(-c2ccc(C(=O)NS(=O)(=O)c3ccn[nH]3)c(N3[C@H](C)CC[C@@H]3C)n2)c1 [Compound 710, 2-[(2S,5R)-2,5-dimethylpyrrolidin-1-yl]-6-(3-isobutoxyphenyl)-N-(1H-pyrazol-5-ylsulfonyl)pyridine-3-carboxamide]	+++ (“+++” means <3 uM)
CC(C)COc1cc(F)cc(-c2ccc(C(=O)NS(=O)(=O)c3cccc(N)n3)c(N3C(C)CC(c4ccccc4)C3C)n2)c1 (centres unmarked) [Compound 711, N-[(6-amino-2-pyridyl)sulfonyl]-2-(2,5-dimethyl-3-phenyl-pyrrolidin-1-yl)-6-(3-fluoro-5-isobutoxy-phenyl)pyridine-3-carboxamide]	+++ (“+++” means <3 uM)
CC1CN(c2nc(-c3ccc(F)cc3)ccc2C(=O)NS(=O)(=O)c2cccc(N)n2)C(C)(C)C1 (centres unmarked) [Compound 712, N-[(6-amino-2-pyridyl)sulfonyl]-6-(4-fluorophenyl)-2-(2,2,4-trimethylpyrrolidin-1-yl)pyridine-3-carboxamide]	+++ (“+++” means <3 uM)
Cc1ccc(Oc2nc(-c3cnn(CC(C)C)c3)ccc2C(=O)NS(=O)(=O)c2nccnc2N)c(C)c1 [Compound 713, N-(3-aminopyrazin-2-yl)sulfonyl-2-(2,4-dimethylphenoxy)-6-(1-isobutylpyrazol-4-yl)pyridine-3-carboxamide]	++ (“++” means between 3 uM and 10 uM)
Cc1cc(C)c(Oc2nc3c(cc2C(=O)NS(=O)(=O)c2cccc(N)n2)COCC3(C)C)c(C)c1 [Compound 714, N-[(6-amino-2-pyridyl)sulfonyl]-8,8-dimethyl-2-(2,4,6-trimethylphenoxy)-5,7-dihydropyrano[4,3-b]pyridine-3-carboxamide]	+++ (“+++” means <3 uM)
CC(C)COc1cc(F)cc(-c2ccc(C(=O)NS(=O)(=O)c3ccn[nH]3)c(N3CCC[C@H]3c3ccccc3)n2)c1 [Compound 716, 6-(3-fluoro-5-isobutoxy-phenyl)-2-[(2S)-2-phenylpyrrolidin-1-yl]-N-(1H-pyrazol-5-ylsulfonyl)pyridine-3-carboxamide]	+++ (“+++” means <3 uM)
CC(C)C(C)Oc1cccc(-c2ccc(C(=O)NS(=O)(=O)c3cccc(N)n3)c(N3CCCC3(C)C)n2)n1 (centres unmarked) [Compound 717, N-[(6-amino-2-pyridyl)sulfonyl]-6-[6-(1,2-dimethylpropoxy)-2-pyridyl]-2-(2,2-dimethylpyrrolidin-1-yl)pyridine-3-carboxamide]	+++ (“+++” means <3 uM)
CCOc1ncccc1-c1ccc(C(=O)NS(=O)(=O)c2cccc(N)n2)c(Oc2c(C)cc(C)cc2C)n1 [Compound 718, N-[(6-amino-2-pyridyl)sulfonyl]-6-(2-ethoxy-3-pyridyl)-2-(2,4,6-trimethylphenoxy)pyridine-3-carboxamide]	+++ (“+++” means <3 uM)
COC[C@@H]1CCCN1c1nc(-c2cc(F)cc(OCC(C)C)c2)ccc1C(=O)NS(=O)(=O)c1cccc(N)n1 [Compound 719, N-[(6-amino-2-pyridyl)sulfonyl]-6-(3-fluoro-5-isobutoxy-phenyl)-2-[(2S)-2-(methoxymethyl)pyrrolidin-1-yl]pyridine-3-carboxamide]	+++ (“+++” means <3 uM)
CC(C)COc1cc(F)cc(-c2ccc(C(=O)NS(=O)(=O)c3cccc(N)n3)c(N3CCC(C)C3C)n2)c1 (centres unmarked) [Compound 720, N-[(6-amino-2-pyridyl)sulfonyl]-2-(2,3-dimethylpyrrolidin-1-yl)-6-(3-fluoro-5-isobutoxy-phenyl)pyridine-3-carboxamide]	+++ (“+++” means <3 uM)
CC(C)COc1ccc(F)c(-c2ccc(C(=O)NS(=O)(=O)c3ccc[nH]c3=O)c(N3[C@H](C)CC[C@@H]3C)n2)c1 [Compound 721, 2-[(2S,5R)-2,5-dimethylpyrrolidin-1-yl]-6-(2-fluoro-5-isobutoxy-phenyl)-N-[(2-oxo-1H-pyridin-3-yl)sulfonyl]pyridine-3-carboxamide]	++ (“++” means between 3 uM and 10 uM)
